Test results from ChEMBL document CHEMBL1201862, “PubChem BioAssay data set” (2004).
Activity calls are given as the source filed them.

What was measured:
[1] = molecular target: T1, Calpain-2 catalytic subunit (Sus scrofa, UniProt P43367); experiment: m-calpain protease blockers, concentration series – biochemical, fluorogenic peptide substrate, dose response (AID 1420); type: functional
T1 sequence (P43367 whole entry): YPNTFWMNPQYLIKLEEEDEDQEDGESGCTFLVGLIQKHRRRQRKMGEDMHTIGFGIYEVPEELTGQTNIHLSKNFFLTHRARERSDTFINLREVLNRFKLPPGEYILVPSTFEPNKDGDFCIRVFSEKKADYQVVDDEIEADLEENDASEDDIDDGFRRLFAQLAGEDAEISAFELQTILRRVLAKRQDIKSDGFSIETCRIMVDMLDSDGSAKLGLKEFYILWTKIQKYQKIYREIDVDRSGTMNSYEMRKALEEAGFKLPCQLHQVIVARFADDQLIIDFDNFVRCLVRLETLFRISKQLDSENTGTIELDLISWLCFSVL

cells [2] = type: functional, cell-based
H4 = experiment: Luminescence Cell-Based Dose Response HTS to Identify Activators of 5'UTR Stem-Loop Driven Prion Protein mRNA Translation in H4 Neuroglioblastoma Cells. [Related pubchem assays: 1829 (Project Summary), 1814 (Primary HTS)]; type: functional; conditions: Homo sapiens
cells [3] = type: functional, cell-based; remark: listed apart in the source
[4] = Luminescence Cell-Based Dose Response HTS to Identify Activators of Luciferase Translation or Activity in H4 […] Cells. [Related pubchem assays: 1829 (Project Summary), 1814 (Primary HTS)]; type: functional
[5] = Luminescence Cell-Based Dose Confirmation HTS to Identify Activators of 5'UTR Stem-Loop Driven Alpha-Synuclein mRNA Translation in H4 Neuroglioblastoma Cells. [Related pubchem assays: 1829 (Project Summary), 1814 (Primary HTS)]; type: functional
Streptokinase A = molecular target: T2, Streptokinase A (Streptococcus pyogenes serotype M1, UniProt P10520); experiment: viability-normalized secreted streptokinase activity reduction – plasminogen activation absorbance, OD405, dose response (AID 1914); type: functional, Streptococcus pyogenes M1 GAS;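 also: secreted streptokinase activity via plasminogen activation per viability signal from cell pellet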
T2 sequence (P10520 whole entry): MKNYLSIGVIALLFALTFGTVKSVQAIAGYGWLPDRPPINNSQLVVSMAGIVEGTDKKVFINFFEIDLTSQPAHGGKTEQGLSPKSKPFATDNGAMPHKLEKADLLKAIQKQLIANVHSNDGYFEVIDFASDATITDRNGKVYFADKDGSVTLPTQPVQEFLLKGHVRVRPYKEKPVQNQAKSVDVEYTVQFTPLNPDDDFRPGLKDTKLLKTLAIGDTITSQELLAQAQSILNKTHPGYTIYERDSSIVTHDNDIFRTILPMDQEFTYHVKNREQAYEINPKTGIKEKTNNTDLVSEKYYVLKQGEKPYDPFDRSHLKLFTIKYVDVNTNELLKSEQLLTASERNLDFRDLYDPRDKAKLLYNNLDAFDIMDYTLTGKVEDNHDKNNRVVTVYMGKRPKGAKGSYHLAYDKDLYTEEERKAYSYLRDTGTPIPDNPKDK

[6] = system: Streptococcus sp. 'group A'; experiment: Streptococcus pyogenes SK(-)GAS viability under kanamycin – luminescence, BacTiterGlo, confirmation, counter-screen for streptokinase expression inhibitor project, dose response (AID 1900); type: functional, organism-based
Streptococcus = experiment: GAS UMAA2166 growth inhibition – luminescence, BacTiterGlo, counter-screen for streptokinase expression inhibitor project, dose response (AID 1915); type: functional, organism-based;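 also: potency for reduction of bacterial viability or growth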
[7] = bead-based luminescence quenchers, dual-tagged ARNT – biochemical, AlphaScreen, cherry-pick, artefact control for ARNT-TACC3 interaction inhibitor project, dose response (AID 651705); type: functional;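 also: AlphaScreen bead proximity signal that flags compounds interfering with the detection technology; potency reflects signal decrease which marks the compound as an assay artifact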
[8] = NIH3T3 cell viability loss – ATP luminescence, mouse fibroblasts, counter-screen, dose response (AID 2010); type: functional, cell-based;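 also: cells exposed to compound for about 90 hours before reading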
[9] = Trypanosoma cruzi growth suppression in host cells – NIH3T3 host cells, beta-gal luminescence, confirmation (AID 2044); type: functional, cell-based;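 also: intracellular parasites grown in NIH/3T3 mouse fibroblasts as host cells; luminescent beta-galactosidase reporter signal from transgenic T. cruzi replicating inside host cells; inhibitors lower the luminescence signal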
[10] = molecular target: Glyceraldehyde-3-phosphate dehydrogenase (Homo sapiens, UniProt P04406)
Sequence of Glyceraldehyde-3-phosphate dehydrogenase (P04406 whole entry): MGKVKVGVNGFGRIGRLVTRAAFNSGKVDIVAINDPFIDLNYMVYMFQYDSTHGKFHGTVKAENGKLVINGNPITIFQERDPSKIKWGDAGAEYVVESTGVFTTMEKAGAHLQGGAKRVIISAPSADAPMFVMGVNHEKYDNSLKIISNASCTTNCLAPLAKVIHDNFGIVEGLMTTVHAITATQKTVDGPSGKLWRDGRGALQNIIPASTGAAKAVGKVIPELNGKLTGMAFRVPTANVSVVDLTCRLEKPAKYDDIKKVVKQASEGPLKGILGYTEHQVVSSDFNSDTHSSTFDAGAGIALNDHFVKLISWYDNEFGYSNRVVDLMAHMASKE

[11] = molecular target: T3, DNA repair protein RAD52 homolog (Homo sapiens, UniProt P43351); type: functional, biochemical
T3 sequence (P43351 whole entry): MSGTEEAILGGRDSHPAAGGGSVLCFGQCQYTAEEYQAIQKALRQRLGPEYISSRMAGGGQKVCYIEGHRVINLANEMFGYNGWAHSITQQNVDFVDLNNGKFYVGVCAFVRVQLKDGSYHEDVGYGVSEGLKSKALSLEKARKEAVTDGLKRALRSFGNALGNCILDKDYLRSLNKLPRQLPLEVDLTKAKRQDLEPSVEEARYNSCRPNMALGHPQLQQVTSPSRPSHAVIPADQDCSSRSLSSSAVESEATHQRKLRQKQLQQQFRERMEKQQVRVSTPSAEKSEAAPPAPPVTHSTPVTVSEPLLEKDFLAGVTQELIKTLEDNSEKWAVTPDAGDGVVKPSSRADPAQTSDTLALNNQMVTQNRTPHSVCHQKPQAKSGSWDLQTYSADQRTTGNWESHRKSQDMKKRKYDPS

[12] = molecular target: T4, DNA repair and recombination protein RAD54-like (Homo sapiens, UniProt Q92698); experiment: RAD54 Holliday junction migration blockers – biochemical, fluorescence, cherry-picked samples, dose series, confirmation (AID 651657); type: functional
T4 sequence (Q92698 whole entry): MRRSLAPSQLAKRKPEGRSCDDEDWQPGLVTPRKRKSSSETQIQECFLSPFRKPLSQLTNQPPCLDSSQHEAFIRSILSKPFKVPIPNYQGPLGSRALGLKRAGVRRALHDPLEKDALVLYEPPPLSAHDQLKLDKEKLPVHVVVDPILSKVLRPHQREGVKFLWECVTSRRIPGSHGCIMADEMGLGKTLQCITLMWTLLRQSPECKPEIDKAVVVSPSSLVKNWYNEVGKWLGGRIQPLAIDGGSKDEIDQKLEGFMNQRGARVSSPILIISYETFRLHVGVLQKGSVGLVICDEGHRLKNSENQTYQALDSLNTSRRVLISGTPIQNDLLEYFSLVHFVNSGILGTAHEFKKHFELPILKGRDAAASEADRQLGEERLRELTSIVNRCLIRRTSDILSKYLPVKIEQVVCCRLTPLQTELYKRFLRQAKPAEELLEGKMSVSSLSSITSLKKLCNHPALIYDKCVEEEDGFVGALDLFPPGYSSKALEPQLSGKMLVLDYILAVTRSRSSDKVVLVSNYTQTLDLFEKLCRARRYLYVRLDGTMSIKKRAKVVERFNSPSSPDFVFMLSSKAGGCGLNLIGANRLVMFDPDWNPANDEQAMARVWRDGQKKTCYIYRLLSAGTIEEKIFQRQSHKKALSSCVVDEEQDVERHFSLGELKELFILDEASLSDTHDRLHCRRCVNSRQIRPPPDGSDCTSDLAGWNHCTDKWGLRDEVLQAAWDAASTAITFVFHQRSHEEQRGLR

[13] = viability of PTEN-deleted HCT116 cells – cell-based, HCT116 PTEN knockout, dose response (AID 1047); type: functional;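 also: HCT116 colon tumor cells with PTEN knocked out; cells exposed to compound for 60 hours before readout; potency for loss of cell viability measured by luminescence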
[14] = molecular target: T5, Mannose-6-phosphate isomerase (Homo sapiens, UniProt P34949); experiment: MPI inhibition at elevated mannose 6-phosphate – biochemical, fluorescence intensity, high mannose 6-phosphate, primary screen (AID 1220)
T5 sequence (P34949 whole entry): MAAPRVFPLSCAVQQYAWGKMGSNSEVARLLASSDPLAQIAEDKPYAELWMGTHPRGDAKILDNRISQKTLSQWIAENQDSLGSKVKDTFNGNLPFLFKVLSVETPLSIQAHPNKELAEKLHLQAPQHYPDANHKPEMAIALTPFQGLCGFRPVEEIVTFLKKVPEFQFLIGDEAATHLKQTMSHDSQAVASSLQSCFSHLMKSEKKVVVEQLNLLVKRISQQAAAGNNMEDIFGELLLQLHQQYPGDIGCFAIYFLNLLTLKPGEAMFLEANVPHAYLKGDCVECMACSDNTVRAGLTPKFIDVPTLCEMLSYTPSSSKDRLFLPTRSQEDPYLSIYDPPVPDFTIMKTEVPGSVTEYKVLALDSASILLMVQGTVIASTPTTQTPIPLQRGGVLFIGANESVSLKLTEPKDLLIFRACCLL

Protein RecA = molecular target: T6, Protein RecA (Mycobacterium tuberculosis, UniProt P9WHJ3); experiment: Fluorescence Cell-Free Homogeneous Dose Retest to Identify Inhibitors of RecA-Intein Splicing Activity. [Related pubchem assays (depositor defined):AID2097, AID2223, AID489010, AID492950]; type: functional
T6 sequence (P9WHJ3 whole entry): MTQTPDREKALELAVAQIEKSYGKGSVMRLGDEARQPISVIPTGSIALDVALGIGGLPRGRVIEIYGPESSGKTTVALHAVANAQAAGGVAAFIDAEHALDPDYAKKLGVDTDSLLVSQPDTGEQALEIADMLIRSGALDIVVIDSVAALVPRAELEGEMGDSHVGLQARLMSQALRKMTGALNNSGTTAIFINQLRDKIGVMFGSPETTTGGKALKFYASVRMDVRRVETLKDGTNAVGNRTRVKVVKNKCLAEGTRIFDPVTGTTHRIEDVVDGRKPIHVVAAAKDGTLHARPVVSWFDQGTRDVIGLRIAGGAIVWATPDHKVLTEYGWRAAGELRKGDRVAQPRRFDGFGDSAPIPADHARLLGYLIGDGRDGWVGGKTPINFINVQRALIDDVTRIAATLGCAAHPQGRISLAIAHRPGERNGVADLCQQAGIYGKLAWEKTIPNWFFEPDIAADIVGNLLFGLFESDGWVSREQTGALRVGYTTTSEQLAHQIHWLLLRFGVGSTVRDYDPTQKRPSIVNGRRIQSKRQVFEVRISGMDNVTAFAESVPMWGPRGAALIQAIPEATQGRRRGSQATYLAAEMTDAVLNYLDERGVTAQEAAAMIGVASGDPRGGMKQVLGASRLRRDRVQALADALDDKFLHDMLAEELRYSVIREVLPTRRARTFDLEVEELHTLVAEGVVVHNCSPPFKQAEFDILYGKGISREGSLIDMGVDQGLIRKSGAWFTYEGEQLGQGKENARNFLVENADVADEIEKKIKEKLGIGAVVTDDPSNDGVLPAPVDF

[15] = molecular target: T7, Replicative DNA helicase DnaB (Mycobacterium tuberculosis, UniProt P9WMR3); experiment: DnaB intein splicing inhibitors, dose response, biochemical, cell-free fluorescence (AID 449749); type: functional
T7 sequence (P9WMR3 whole entry): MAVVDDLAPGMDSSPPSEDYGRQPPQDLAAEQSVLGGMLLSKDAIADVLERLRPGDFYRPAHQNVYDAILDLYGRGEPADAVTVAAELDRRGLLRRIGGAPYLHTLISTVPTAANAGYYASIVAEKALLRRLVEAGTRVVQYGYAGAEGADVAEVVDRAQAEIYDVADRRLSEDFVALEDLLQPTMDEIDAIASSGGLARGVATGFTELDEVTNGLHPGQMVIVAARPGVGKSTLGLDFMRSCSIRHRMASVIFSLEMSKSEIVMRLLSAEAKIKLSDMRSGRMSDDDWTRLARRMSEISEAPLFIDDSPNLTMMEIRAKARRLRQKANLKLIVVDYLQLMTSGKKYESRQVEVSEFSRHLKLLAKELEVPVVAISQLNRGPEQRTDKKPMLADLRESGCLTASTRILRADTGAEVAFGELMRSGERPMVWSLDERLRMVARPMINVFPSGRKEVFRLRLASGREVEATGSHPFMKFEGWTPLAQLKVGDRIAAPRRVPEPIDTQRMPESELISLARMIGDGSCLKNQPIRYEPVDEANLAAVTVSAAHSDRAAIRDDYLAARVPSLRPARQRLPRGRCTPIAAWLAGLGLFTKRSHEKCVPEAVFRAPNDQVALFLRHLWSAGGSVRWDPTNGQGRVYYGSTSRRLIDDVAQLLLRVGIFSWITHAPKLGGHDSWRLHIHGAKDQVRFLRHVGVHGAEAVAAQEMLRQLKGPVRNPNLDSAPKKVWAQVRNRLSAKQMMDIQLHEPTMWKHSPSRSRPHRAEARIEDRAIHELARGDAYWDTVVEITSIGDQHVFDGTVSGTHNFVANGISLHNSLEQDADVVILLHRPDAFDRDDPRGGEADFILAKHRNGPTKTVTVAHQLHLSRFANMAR

## O=C(/C=C/c1ccc([N+](=O)[O-])cc1)NCCSc1ccccc1
[1]
  IC50: 15.9 µM (not active)

## c1ccc(CCN2CN=C(Nc3nc4ccccc4o3)NC2)cc1
Cells [2]
  IC50: > 29.9 µM (inactive)
H4
  EC50: 17.3 µM (active)
Cells [3]
  EC50: > 29.9 µM (inactive)
[4]
  EC50: 8.35 µM (active)
[5]
  EC50: 14.3 µM (active)

## CSCc1cc(N(C)c2ccccc2)nc(-c2ccccn2)n1
Streptokinase A
  EC50: > 150 µM (not active)
[6]
  EC50: 6.57 µM (active)
Streptococcus
  EC50: 25 µM (active)
[7]
  AC50: 108 µM (active)
[8]
  EC50: > 60 µM (not active)
[9]
  EC50: 1.89 µM (active)

## CCCCOC(=O)c1ccc(S(N)(=O)=O)o1
[10]
  IC50: > 100 µM (not active)

## CCN(CC)CCCNC(=O)c1cc2c(O)nc3ccc(C)cc3c2s1
[11]
  AC50: 21.5 µM (active)
[12]
  AC50: 62.4 µM (active)

## COC(=O)c1cn(NC(=O)c2cc(OC)c(OC)c(OC)c2)c(=O)c2ccccc12
[13]
  EC50: 41.4 µM (active)

## COc1ccc(Nc2nc3nc(O)cc(O)c3s2)cc1
[14]
  IC50: > 50 µM (not active)

## Cc1sc(NC(=S)NC(=O)c2cccs2)nc1-c1ccc(C(C)C)cc1
[1]
  IC50: 26 µM (not active)

## Oc1ncc(NCCc2ccccc2)c(O)n1
Cells [2]
  IC50: > 29.9 µM (inactive)
Cells [3]
  EC50: > 29.9 µM (inactive)

## O=C(CN(C(=O)CSc1nnc(COc2ccccc2)o1)c1ccc(F)cc1)NC1CCCCC1
[1]
  IC50: 3.19 µM (not active)

## COc1ccc(-c2cnc3c(NC(C)=O)cc(-c4cccc(C(=O)NCCN(C)C)c4)cn23)cc1OC
[11]
  AC50: 2.33 µM (active)
[12]
  AC50: 15.2 µM (active)

## Cc1ccsc1-c1cc2nc(NCCCN(C)C)n(C)c(=O)c2s1
[11]
  AC50: 9.79 µM (active)
[12]
  AC50: 47 µM (active)

## Cn1c(NCCN2CCCC2)nc2cc(-c3ccccc3)sc2c1=O
[11]
  AC50: 16.2 µM (active)
[12]
  AC50: 39.3 µM (active)

## C/C(CC(=O)N1CCN(C=O)CC1)=N\NC(=O)c1cc2ccccc2cc1O
[14]
  IC50: 42.5 µM (active)

## Nc1ccc2ncccc2c1
Protein RecA
  EC50: 5.95 µM (active)
[15]
  AC50: 6.42 µM (active)
[14]
  IC50: > 50 µM (not active)
